From the NIST ThermoML archive (doi:10.1016/j.jct.2015.08.014)
Numbers after ± are expanded uncertainties.

Assay: xn = mol fraction of the nth substance listed
Settings: 303.15 K, 100 kPa, Liquid, Alternating current cell with electrodes

CCCC[N+]1(C)CCCC1.N#CN=C=[N-] [1-butyl-1-methylpyrrolidinium dicyanamide] + O=C1CCCO1
Settings | electrical conductivity [S/m]
Frequency=0.00347222 MHz, x1 = 0.4985 | 2.33 ± 0.024
Frequency=0.00347222 MHz, x1 = 0.6954 | 1.912 ± 0.019
Frequency=0.00347222 MHz, x1 = 0.9013 | 1.607 ± 0.016
Frequency=0.00347222 MHz, x1 = 1 | 1.527 ± 0.015
Frequency=0.004 MHz, x1 = 0.0463 | 1.58 ± 0.028
Frequency=0.004 MHz, x1 = 0.0987 | 2.38 ± 0.03
Frequency=0.004 MHz, x1 = 0.1449 | 2.71 ± 0.029
Frequency=0.004 MHz, x1 = 0.1859 | 2.9 ± 0.029
Frequency=0.004 MHz, x1 = 0.2493 | 2.85 ± 0.029
Frequency=0.004 MHz, x1 = 0.3029 | 2.79 ± 0.028
Frequency=0.004 MHz, x1 = 0.3845 | 2.618 ± 0.026
Frequency=0.004 MHz, x1 = 0.4985 | 2.33 ± 0.024
Frequency=0.004 MHz, x1 = 0.6954 | 1.912 ± 0.019
Frequency=0.004 MHz, x1 = 0.9013 | 1.607 ± 0.016
Frequency=0.004 MHz, x1 = 1 | 1.527 ± 0.015
Frequency=0.00446429 MHz, x1 = 0.0463 | 1.58 ± 0.028
Frequency=0.00446429 MHz, x1 = 0.0987 | 2.38 ± 0.03
Frequency=0.00446429 MHz, x1 = 0.1449 | 2.71 ± 0.029
Frequency=0.00446429 MHz, x1 = 0.1859 | 2.9 ± 0.029
Frequency=0.00446429 MHz, x1 = 0.2493 | 2.85 ± 0.029
Frequency=0.00446429 MHz, x1 = 0.3029 | 2.79 ± 0.028
Frequency=0.00446429 MHz, x1 = 0.3845 | 2.618 ± 0.026
Frequency=0.00446429 MHz, x1 = 0.4985 | 2.33 ± 0.024
Frequency=0.00446429 MHz, x1 = 0.6954 | 1.912 ± 0.019
Frequency=0.00446429 MHz, x1 = 0.9013 | 1.608 ± 0.016
Frequency=0.00446429 MHz, x1 = 1 | 1.527 ± 0.015
Frequency=0.005 MHz, x1 = 0.0463 | 1.58 ± 0.028
Frequency=0.005 MHz, x1 = 0.0987 | 2.38 ± 0.03
Frequency=0.005 MHz, x1 = 0.1449 | 2.71 ± 0.029
Frequency=0.005 MHz, x1 = 0.1859 | 2.9 ± 0.029
Frequency=0.005 MHz, x1 = 0.2493 | 2.85 ± 0.029
Frequency=0.005 MHz, x1 = 0.3029 | 2.79 ± 0.028
Frequency=0.005 MHz, x1 = 0.3845 | 2.618 ± 0.026
Frequency=0.005 MHz, x1 = 0.4985 | 2.33 ± 0.024
Frequency=0.005 MHz, x1 = 0.6954 | 1.912 ± 0.019
Frequency=0.005 MHz, x1 = 0.9013 | 1.608 ± 0.016
Frequency=0.005 MHz, x1 = 1 | 1.527 ± 0.015
Frequency=0.005454 MHz, x1 = 0.0463 | 1.58 ± 0.028
Frequency=0.005454 MHz, x1 = 0.0987 | 2.38 ± 0.03
Frequency=0.005454 MHz, x1 = 0.1449 | 2.71 ± 0.029
Frequency=0.005454 MHz, x1 = 0.1859 | 2.9 ± 0.029
Frequency=0.005454 MHz, x1 = 0.2493 | 2.86 ± 0.029
Frequency=0.005454 MHz, x1 = 0.3029 | 2.79 ± 0.028
Frequency=0.005454 MHz, x1 = 0.3845 | 2.619 ± 0.026
Frequency=0.005454 MHz, x1 = 0.4985 | 2.33 ± 0.024
Frequency=0.005454 MHz, x1 = 0.6954 | 1.912 ± 0.019
Frequency=0.005454 MHz, x1 = 0.9013 | 1.608 ± 0.016
Frequency=0.005454 MHz, x1 = 1 | 1.527 ± 0.015
Frequency=0.006 MHz, x1 = 0.0463 | 1.58 ± 0.028
Frequency=0.006 MHz, x1 = 0.0987 | 2.38 ± 0.03
Frequency=0.006 MHz, x1 = 0.1449 | 2.71 ± 0.029
Frequency=0.006 MHz, x1 = 0.1859 | 2.9 ± 0.029
Frequency=0.006 MHz, x1 = 0.2493 | 2.86 ± 0.029
Frequency=0.006 MHz, x1 = 0.3029 | 2.79 ± 0.028
Frequency=0.006 MHz, x1 = 0.3845 | 2.619 ± 0.026
Frequency=0.006 MHz, x1 = 0.4985 | 2.33 ± 0.024
Frequency=0.006 MHz, x1 = 0.6954 | 1.912 ± 0.019
Frequency=0.006 MHz, x1 = 0.9013 | 1.608 ± 0.016
Frequency=0.006 MHz, x1 = 1 | 1.527 ± 0.015
Frequency=0.00652174 MHz, x1 = 0.0463 | 1.58 ± 0.028
Frequency=0.00652174 MHz, x1 = 0.0987 | 2.38 ± 0.03
Frequency=0.00652174 MHz, x1 = 0.1449 | 2.71 ± 0.029
Frequency=0.00652174 MHz, x1 = 0.1859 | 2.9 ± 0.029
Frequency=0.00652174 MHz, x1 = 0.2493 | 2.86 ± 0.029
Frequency=0.00652174 MHz, x1 = 0.3029 | 2.79 ± 0.028
Frequency=0.00652174 MHz, x1 = 0.3845 | 2.619 ± 0.026
Frequency=0.00652174 MHz, x1 = 0.4985 | 2.33 ± 0.024
Frequency=0.00652174 MHz, x1 = 0.6954 | 1.913 ± 0.019
Frequency=0.00652174 MHz, x1 = 0.9013 | 1.608 ± 0.016
Frequency=0.00652174 MHz, x1 = 1 | 1.527 ± 0.015
Frequency=0.00694444 MHz, x1 = 0.0463 | 1.58 ± 0.028
Frequency=0.00694444 MHz, x1 = 0.0987 | 2.38 ± 0.03
Frequency=0.00694444 MHz, x1 = 0.1449 | 2.71 ± 0.029
Frequency=0.00694444 MHz, x1 = 0.1859 | 2.901 ± 0.029
Frequency=0.00694444 MHz, x1 = 0.2493 | 2.86 ± 0.029
Frequency=0.00694444 MHz, x1 = 0.3029 | 2.79 ± 0.028
Frequency=0.00694444 MHz, x1 = 0.3845 | 2.619 ± 0.026
Frequency=0.00694444 MHz, x1 = 0.4985 | 2.33 ± 0.024
Frequency=0.00694444 MHz, x1 = 0.6954 | 1.913 ± 0.019
Frequency=0.00694444 MHz, x1 = 0.9013 | 1.608 ± 0.016
Frequency=0.00694444 MHz, x1 = 1 | 1.527 ± 0.015
Frequency=0.0075 MHz, x1 = 0.0463 | 1.58 ± 0.028
Frequency=0.0075 MHz, x1 = 0.0987 | 2.38 ± 0.03
Frequency=0.0075 MHz, x1 = 0.1449 | 2.71 ± 0.029
Frequency=0.0075 MHz, x1 = 0.1859 | 2.901 ± 0.029
Frequency=0.0075 MHz, x1 = 0.2493 | 2.86 ± 0.029
Frequency=0.0075 MHz, x1 = 0.3029 | 2.79 ± 0.028
Frequency=0.0075 MHz, x1 = 0.3845 | 2.619 ± 0.026
Frequency=0.0075 MHz, x1 = 0.4985 | 2.33 ± 0.024
Frequency=0.0075 MHz, x1 = 0.6954 | 1.913 ± 0.019
Frequency=0.0075 MHz, x1 = 0.9013 | 1.608 ± 0.016
Frequency=0.0075 MHz, x1 = 1 | 1.527 ± 0.015
Frequency=0.008 MHz, x1 = 0.0463 | 1.58 ± 0.028
Frequency=0.008 MHz, x1 = 0.0987 | 2.38 ± 0.03
Frequency=0.008 MHz, x1 = 0.1449 | 2.71 ± 0.029
Frequency=0.008 MHz, x1 = 0.1859 | 2.902 ± 0.029
Frequency=0.008 MHz, x1 = 0.2493 | 2.86 ± 0.029
Frequency=0.008 MHz, x1 = 0.3029 | 2.79 ± 0.028
Frequency=0.008 MHz, x1 = 0.3845 | 2.62 ± 0.026
Frequency=0.008 MHz, x1 = 0.4985 | 2.33 ± 0.024
Frequency=0.008 MHz, x1 = 0.6954 | 1.913 ± 0.019
Frequency=0.008 MHz, x1 = 0.9013 | 1.608 ± 0.016
Frequency=0.008 MHz, x1 = 1 | 1.527 ± 0.015
Frequency=0.00857143 MHz, x1 = 0.0463 | 1.58 ± 0.028
Frequency=0.00857143 MHz, x1 = 0.0987 | 2.38 ± 0.03
Frequency=0.00857143 MHz, x1 = 0.1449 | 2.71 ± 0.029
Frequency=0.00857143 MHz, x1 = 0.1859 | 2.902 ± 0.029
